Where two headings read alike, the source gives them in different places.
How the values were obtained:
[1] = target: T1, Peroxisome proliferator-activated receptor γ (Homo sapiens, UniProt P37231); assay: cell-based; conditions: for EC10, PPARγ (M): 10% of maximum effect of rosiglitazone; for EC10, linear transformed / EC10, linear / logEC10: PPARγ bioassay; for EC10, linear: linear model; for logEC10: log-logistic model; for SR-ScorePPARγ: SR-Score, sigma k=1, x=5; for Specificity ratio (SRbaseline) SRPPARγ: against baseline cytotoxicity; for Specificity ratio (SRcytotoxicity) SRPPARγ: against experimental cytotoxicity; for EC10, PPARγ: effect; for log(1/EC10) PPARγ: input of the ToxPi score, values up to 1.00; for Emax: read-out: Emax%PPARγ
T1 sequence (P37231 238-505 limits assumed): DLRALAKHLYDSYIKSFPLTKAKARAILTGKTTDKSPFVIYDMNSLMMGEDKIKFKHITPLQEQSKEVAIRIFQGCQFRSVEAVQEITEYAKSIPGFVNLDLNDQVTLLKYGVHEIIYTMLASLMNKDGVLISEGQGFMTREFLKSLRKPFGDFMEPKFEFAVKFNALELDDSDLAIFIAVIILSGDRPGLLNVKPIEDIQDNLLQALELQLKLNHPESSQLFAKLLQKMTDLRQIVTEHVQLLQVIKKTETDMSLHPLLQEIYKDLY
Outline: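 ERα-UAS-bla GripTite and PPARγ-UAS-bla β-lactamase reporter cells were seeded and held 24 h at 37 °C, 5% CO₂ before dosing. EC10 values used only concentrations below the IC10 from IncuCyte confluency. Emax% is the log-logistic curve maximum relative to the reference chemical's maximum.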

HEK293T (ERα) = conditions: for Toxic ratio (TR) TRERα: against baseline cytotoxicity; for IC10, HEK293, ERα: HEK293 (ERα assay cells)
Outline: (§1)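 IncuCyte confluency readout, pre- vs post-24 h exposure, normalized to no-cell wells. Seeding 24 h before dosing; ERα 5000, AhR 3250 cells/well. 11-point dilutions, duplicates, ≥3 independent runs. Methanol <1%. IC10 caps data used for EC10/ECIR1.5.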

MCF7 (ARE/MMP) = conditions: for Toxic ratio (TR) TRARE / Toxic ratio (TR) TRMMP: against baseline cytotoxicity; for Toxic ratio (TR) TRARE: ARE readout; for Toxic ratio (TR) TRMMP: MMP readout; for IC10, MCF7, ARE: MCF7, ARE readout; for IC10, MCF7, MMP: MCF7, MMP readout
Outline: as §1

H4IIe (AhR CALUX) = conditions: for IC10, linear: linear model fit; for Toxic ratio (TR) TRAhR: against baseline cytotoxicity; for IC10, H4IIe, AhR: H4IIe (AhR assay cells)
Outline: as §1

SH-SY5Y cells = conditions: for IC10, SH-S5Y5, NOI: cytotoxicity, NOI assay cells; for Toxic ratio (TR) TRNOI: against baseline cytotoxicity
Outline: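 Cytotoxicity was scored by live–dead nuclear staining (Nuclear Green LCS1 plus propidium iodide) after 24 h chemical exposure at 37° C. Cells were retinoic acid-differentiated (10 µM) and held in medium with 2% B-27 and 2 mM GlutaMAX. Duplicate 11-point dilution series were used, and IC10 was derived.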

[2] = Bioassay ERα, cytotoxicity, dosing range all
[3] = Bioassay ERα, cytotoxicity, dosing range all, linear model fit
[4] = Bioassay ERα, cytotoxicity, dosing range all, log-logistic model fit
[5] = Bioassay ARE, cytotoxicity, dosing range all
[6] = Bioassay ARE, cytotoxicity, dosing range all, linear model fit
[7] = Bioassay ARE, cytotoxicity, dosing range all, log-logistic model fit
[8] = MMP bioassay cytotoxicity, dosing range all
[9] = MMP bioassay cytotoxicity, dosing range all, linear model
[10] = MMP bioassay cytotoxicity, dosing range all, log-logistic model
[11] = Bioassay AhR, cytotoxicity, dosing range all
[12] = Bioassay AhR, cytotoxicity, dosing range all, log-logistic model fit
[13] = NOI bioassay cytotoxicity, dosing range all, linear model
[14] = NOI bioassay cytotoxicity, dosing range all, log-logistic model
[15] = NOI bioassay cytotoxicity, dosing range all

| SMILES | EC10, PPARγ (M) [1] | SR-ScorePPARγ [1] | Specificity ratio (SRbaseline) SRPPARγ [1] | EC10, PPARγ [1] [µM] | log(1/EC10) PPARγ [1] | Emax [1] [%] | IC10, linear (HEK293T (ERα); [3]) | logIC10 (HEK293T (ERα); [4]) | Toxic ratio (TR) TRERα (HEK293T (ERα)) | IC10, HEK293, ERα (HEK293T (ERα); cytotoxicity) [µM] | IC10, linear (MCF7 (ARE/MMP); [6]) | logIC10 (MCF7 (ARE/MMP); [7]) | IC10, linear (MCF7 (ARE/MMP); [9]) | logIC10 (MCF7 (ARE/MMP); [10]) | IC10, linear (H4IIe (AhR CALUX); [11]) | logIC10 (H4IIe (AhR CALUX); [12]) | IC10, linear (SH-SY5Y cells; [13]) | logIC10 (SH-SY5Y cells; [14]) | EC10, linear ([1]; dosing range all) | logEC10 ([1]; dosing range all) | also measured |
| --- | --- | --- | --- | --- | --- | --- | --- | --- | --- | --- | --- | --- | --- | --- | --- | --- | --- | --- | --- | --- | --- |
| O=S(=O)(c1ccc(O)cc1)c1ccc(OCc2ccccc2)cc1 [BPS-MPE, 4-[4-(benzyloxy)benzenesulfonyl]phenol] | 2.35 × 10^–7 M | 1.00 | 49.84 | 0.235 | 0.94 | 25 | 1.12E-04 | -4.00 | 0.10 | 112 | 1.19E-04 | -4.10 | 1.88E-04 | -3.91 | 5.18E-05 | -4.24 | no cytotoxicity | no cytotoxicity |  |  | EC10, linear transformed ([1]; dosing range high): 1.15E-09; EC10, linear ([1]; dosing range high): 1.01E-07; logEC10 ([1]; dosing range high): -8.94; EC10, linear transformed ([1]; dosing range low): 2.35E-07; EC10, linear ([1]; dosing range low): 4.02E-07; logEC10 ([1]; dosing range low): -6.63; Specificity ratio (SRcytotoxicity) SRPPARγ [1]: 570.13; IC10, linear transformed (HEK293T (ERα); [2]): 3.17E-05; IC10, linear transformed (MCF7 (ARE/MMP); [5]): 7.91E-05; IC10, linear transformed (MCF7 (ARE/MMP); [8]): 1.23E-04; Toxic ratio (TR) TRARE (MCF7 (ARE/MMP)): 0.45; Toxic ratio (TR) TRMMP (MCF7 (ARE/MMP)): 0.29; IC10, MCF7, ARE (MCF7 (ARE/MMP); cytotoxicity): 79.1 µM; IC10, MCF7, MMP (MCF7 (ARE/MMP); cytotoxicity): 123 µM; IC10, linear transformed (H4IIe (AhR CALUX); [11]): 5.80E-05; Toxic ratio (TR) TRAhR (H4IIe (AhR CALUX)): 0.68; IC10, H4IIe, AhR (H4IIe (AhR CALUX); cytotoxicity): 51.8 µM |
| Oc1ccc(Sc2ccc(O)cc2)cc1 [BPT, 4,4'-Thiodiphenol] | 9.61 × 10^–7 M | 1.00 |  | 0.961 | 0.85 | 20 | 2.43E-05 | -4.53 |  | 24.3 | 3.07E-04 | -3.76 | 2.97E-04 | -3.69 | 5.00E-05 | -4.09 | 1.40E-04 | no cytotoxicity | 1.48E-06 | -6.02 | EC10, linear transformed ([1]; dosing range all): 9.61E-07; IC10, linear transformed (HEK293T (ERα); [2]): 4.06E-05; IC10, linear transformed (MCF7 (ARE/MMP); [5]): 1.75E-04; IC10, linear transformed (MCF7 (ARE/MMP); [8]): 2.05E-04; IC10, MCF7, ARE (MCF7 (ARE/MMP); cytotoxicity): 175 µM; IC10, MCF7, MMP (MCF7 (ARE/MMP); cytotoxicity): 205 µM; IC10, linear transformed (H4IIe (AhR CALUX); [11]): 8.07E-05; IC10, H4IIe, AhR (H4IIe (AhR CALUX); cytotoxicity): 50 µM; IC10, SH-S5Y5, NOI (SH-SY5Y cells): 140 µM |
| Cc1ccc(S(=O)(=O)NC(=O)Nc2ccc(Cc3ccc(NC(=O)NS(=O)(=O)c4ccc(C)cc4)cc3)cc2)cc1 [BTUM, 4,4'-Bis(p-tolylsulfonylureido)diphenylmethane] | 2.56 × 10^–7 M | 1.00 | 110.22 | 0.256 | 0.93 | 47 | 3.66E-05 | no cytotoxicity |  |  | no cytotoxicity | no cytotoxicity | no cytotoxicity | no cytotoxicity | no cytotoxicity | no cytotoxicity | no cytotoxicity | no cytotoxicity | 2.64E-07 | -6.59 | Specificity ratio (SRcytotoxicity) SRPPARγ [1]: 121.09; SR (PPARγ) ([1]; specificity ratio): 121 |
| COC(=O)C(c1ccc(O)cc1)c1ccc(O)cc1 [Bz, Methyl bis(4-hydroxyphenyl)acetate] |  |  |  |  |  |  |  |  | 0.26 | 1010 | 3.89E-04 | -3.30 | 3.44E-04 | -3.46 | 1.09E-04 | -3.85 | 3.73E-04 | -3.30 | no effect | no effect | IC10, linear transformed (HEK293T (ERα); Bioassay ERα, cytotoxicity, dosing range high): 1.18E-04; IC10, linear (HEK293T (ERα); Bioassay ERα, cytotoxicity, dosing range high, linear model fit): 1.01E-03; logIC10 (HEK293T (ERα); Bioassay ERα, cytotoxicity, dosing range high, log-logistic model fit): -3.63; IC10, linear (HEK293T (ERα); Bioassay ERα, cytotoxicity, dosing range low, linear model fit): no cytotoxicity; logIC10 (HEK293T (ERα); Bioassay ERα, cytotoxicity, dosing range low, log-logistic model fit): no cytotoxicity; IC10, linear transformed (MCF7 (ARE/MMP); [5]): 4.96E-04; IC10, linear transformed (MCF7 (ARE/MMP); [8]): 3.45E-04; Toxic ratio (TR) TRARE (MCF7 (ARE/MMP)): 0.70; IC10, MCF7, ARE (MCF7 (ARE/MMP); cytotoxicity): 496 µM; IC10, linear transformed (H4IIe (AhR CALUX); [11]): 1.41E-04; Toxic ratio (TR) TRAhR (H4IIe (AhR CALUX)): 3.18; IC10, H4IIe, AhR (H4IIe (AhR CALUX); cytotoxicity): 109 µM; IC10, linear transformed (SH-SY5Y cells; [15]): 5.07E-04; Toxic ratio (TR) TRNOI (SH-SY5Y cells): 0.85; IC10, SH-S5Y5, NOI (SH-SY5Y cells): 373 µM |
| O=C(OCc1ccccc1)c1ccc(O)cc1 [BzPB, Benzyl 4-hydroxybenzoate] | 2.04 × 10^–6 M | 1.00 | 8.14 | 2.04 | 0.80 | 16 | 4.80E-05 | -4.38 | 0.39 | 42.1 | 1.23E-04 | -4.05 | 1.94E-04 | -3.53 | 1.74E-04 | -3.54 | no cytotoxicity | -3.41 | 2.87E-06 | -5.69 | EC10, linear transformed ([1]; dosing range all): 2.04E-06; Specificity ratio (SRcytotoxicity) SRPPARγ [1]: 22.95; IC10, linear transformed (HEK293T (ERα); [2]): 1.15E-05; IC10, linear transformed (MCF7 (ARE/MMP); [5]): 8.95E-05; IC10, linear transformed (MCF7 (ARE/MMP); [8]): 2.97E-04; Toxic ratio (TR) TRARE (MCF7 (ARE/MMP)): 0.38; Toxic ratio (TR) TRMMP (MCF7 (ARE/MMP)): 0.11; IC10, MCF7, ARE (MCF7 (ARE/MMP); cytotoxicity): 89.5 µM; IC10, MCF7, MMP (MCF7 (ARE/MMP); cytotoxicity): 297 µM; IC10, linear transformed (H4IIe (AhR CALUX); [11]): 2.87E-04; Toxic ratio (TR) TRAhR (H4IIe (AhR CALUX)): 0.19; IC10, H4IIe, AhR (H4IIe (AhR CALUX); cytotoxicity): 174 µM; IC10, linear transformed (SH-SY5Y cells; [15]): 3.89E-04; Toxic ratio (TR) TRNOI (SH-SY5Y cells): 0.07; IC10, SH-S5Y5, NOI (SH-SY5Y cells): 389 µM |
| CC(C)Oc1ccc(S(=O)(=O)c2ccc(O)cc2)cc1 [D8, 4-((4-Isopropoxyphenyl)sulfonyl)phenol] |  |  |  |  |  |  |  |  | 0.36 |  |  |  |  |  |  |  |  |  | 5.40E-06 | no effect | IC10, linear (HEK293T (ERα)): no cytotoxicity; logIC10 (HEK293T (ERα); human, 24 h): -3.73; Toxic ratio (TR) TRARE (MCF7 (ARE/MMP)): 0.06; Toxic ratio (TR) TRMMP (MCF7 (ARE/MMP)): 0.06; logIC10 (MCF7 (ARE/MMP); human, 24 h): -2.67; Toxic ratio (TR) TRAhR (H4IIe (AhR CALUX)): 2.94; logIC10 (H4IIe (AhR CALUX); rat, 24 h): -4.56; IC10, linear (SH-SY5Y cells): no cytotoxicity; Toxic ratio (TR) TRNOI (SH-SY5Y cells): 0.22; logIC10 (SH-SY5Y cells; human, 24 h): -3.31 |
| Cc1ccc(S(=O)(=O)NC(=O)Nc2cccc(OS(=O)(=O)c3ccc(C)cc3)c2)cc1 [Pergafast, N-(p-toluenesulfonyl)-N'-(3-(p-toluenesulfonyloxy)phenyl)urea] | 6.71 × 10^–7 M | 1.00 | 77.74 | 0.671 | 0.87 | 16 | 1.21E-05 | -4.96 | 4.31 | 12.1 | 4.06E-05 | no cytotoxicity | no cytotoxicity | no cytotoxicity | no cytotoxicity | no cytotoxicity | 4.94E-05 | no cytotoxicity | 9.42E-07 | -6.17 | EC10, linear transformed ([1]; dosing range all): 6.71E-07; Specificity ratio (SRcytotoxicity) SRPPARγ [1]: 28.39; IC10, linear transformed (HEK293T (ERα); [2]): 8.23E-06; Toxic ratio (TR) TRNOI (SH-SY5Y cells): 2.23; IC10, SH-S5Y5, NOI (SH-SY5Y cells): 49.4 µM |

From publication PMC12392461, “Beyond Estrogenicity: A Comparative Assessment of Bisphenol A and Its Alternatives in In Vitro Assays Questions Safety of Replacements” (Environmental Science & Technology, 2025)
